Read-outs that look alike come from different tables or passages of the source.
Legend:
[1] = system: purified HLA-DR molecules; settings: cited from earlier work; for IC50: high or intermediate affinity, most prevalent HLA-DR molecules, read-out: IC50 for HLA-DR binding; for Number of HLA-DR molecules bound: out of 16 DR molecules tested
[2] = system: HLA-A2.1 positive target cells and wild-type peptide; assay: in vitro primary CTL induction with human PBMC, read-out on peptide-loaded targets; type: cell-based
Procedure: In the final step of the epitope screening process, peptides with high cross-reactive MHC binding to the HLA-A2 supertype family receptors were tested for immunogenicity. The assay is an in vitro primary CTL induction system where CD8^+ PBMC from normal subjects are stimulated in vitro, initially with peptide-loaded dendritic cells (DCs) (adherent PBMC expanded in GM-CSF and IL-4), followed by two weekly cycles of restimulation with peptide (Keogh, E., et al., J. Immunol. 167:787-796 (2001); Kawashima, I., et al., Hum. Immunol. 59:1-14 (1998)). Following expansion of naïve precursor cells, CTL activity is determined in the presence of HLA-A2.1 positive target cells and wild-type peptide, using cytotoxicity (^51Cr-release assay) or interferon-gamma (IFN-γ) production (ELISA) as the read-out. Immunogenic peptides that induced CTL were further tested for responses against the naturally processed epitope expressed on tumor cell lines. Epitopes that induced tumor-reactive CTL were considered as vaccine candidates.

[3] = Solubility of individual peptides
HLA-A2 supertype alleles = assay: MHC binding of motif-containing peptides to purified HLA-A2 supertype molecules; set-up: species or system human; settings: all peptides bind prototype HLA-A2.1
Source text: Assays for determining binding are described in detail, e.g., in PCT publications WO 94/20127 and WO 94/03205, and other publications such Sidney et al., Current Protocols in Immunology 18.3.1 (1998); Sidney, et al., J. Immunol. 154:247 (1995); and Sette, et al., Mol. Immunol. 31:813 (1994). It should be noted that IC50 values can change, often dramatically, if the assay conditions are varied, and depending on the particular reagents used (e.g., HLA preparation, etc.). For example, excessive concentrations of HLA molecules will increase the apparent measured IC50 of a given ligand.
A computer-based motif and algorithm search was performed on the primary amino acid sequences of CEA, MAGE-2/3, HER-2/neu, and p53 to predict peptides most likely to bind the MHC molecules of the five alleles of the HLA-A2 supertype family (Tables 4 and 6) (Sette, A. and J. Sidney, Immunogenetics 50:201-212 (1999)). Motif and algorithm-positive peptides were then synthesized and tested for binding to purified HLA-A2.1, the molecule most frequently expressed in humans as well as other MHC molecules of the HLA-A2 supertype family.

[4] = system: colon cancer and NSCLC patients; settings: out of 12 patients who received the DC vaccine; cited from earlier work
[5] = system: PBMC obtained from healthy donors and cancer patients; settings: primary in vitro induction in healthy donors and recall responses in cancer patients; cited from earlier work
HLA-A2.1 transgenic mice = settings: shown by others; cited from earlier work
[6] = system: patients with recurrent or residual cervical carcinoma; settings: cited from earlier work
[7] = Solubility, Acidic conditions (pH 2-4), 0.1% TFA, 0.15-0.1875M acetic acid, 25 mM pH 4 sodium acetate, 2-5 mg/ml
[8] = pH 9.6, Solubility, Basic conditions (pH 9.6-13), 25 mM pH 9.6 arginine, 25 mM pH 9.6 sodium bicarbonate, 0.1M NaOH, 2-5 mg/ml
[9] = Solubility, Acidic conditions (pH 2-4)
[10] = pH 9.6, Solubility, Basic conditions (pH 9.6-13)

Molecule | solubility [3, 7] | solubility ([3]; Solubility, DMSO, 2-5 mg/ml) | solubility [3, 8] | Solubility at physiological pH [3] | solubility (Solubility, DMSO) | solubility [10] | also measured
aKXVAAWTLKAAa-NH2 | – | – | – | – | – | – | IC50 [1]: ≤ 1 µM; Number of HLA-DR molecules bound [1]: 15
CC[C@H](C)[C@H](NC(=O)[C@H](CCC(=O)O)NC(=O)[C@H](C)NC(=O)[C@@H](NC(=O)[C@@H](N)CCCCN)C(C)C)C(=O)N[C@H](C(=O)N[C@@H](Cc1c[nH]cn1)C(=O)N[C@@H](Cc1ccccc1)C(=O)N[C@@H](CC(C)C)C(=O)O)C(C)C [Peptide 1352.03] | > 2 mg/mL | > 2 mg/mL | > 2 mg/mL | soluble | – | – | CTL activity of heteroclitic analog versus wild-type peptide [2]: strong CTL activity which exceeds that of the wild-type peptide
CC(C)C[C@H](NC(=O)[C@H](CCC(N)=O)NC(=O)[C@@H](NC(=O)[C@@H]1CCCN1C(=O)C(C)(C)NC(=O)[C@H](CC(C)C)NC(=O)[C@@H](N)CCCCN)C(C)C)C(=O)N[C@@H](Cc1c[nH]c2ccccc12)C(=O)N[C@H](C(=O)O)C(C)C [Peptide 1323.06, KLBPVQLWV] | > 2 mg/mL | > 2 mg/mL | > 2 mg/mL | soluble | – | – | –
CC(C)C[C@H](NC(=O)[C@H](CC(N)=O)NC(=O)[C@H](CC(C)C)NC(=O)[C@H](CC(=O)O)NC(=O)[C@H](C)NC(=O)CNC(=O)[C@H](CO)NC(=O)[C@H](CC(C)C)NC(=O)[C@@H](N)Cc1ccc(O)cc1)C(=O)O [Peptide 1350.01] | > 2 mg/mL | > 2 mg/mL | > 2 mg/mL | soluble | – | – | No. A2 Alleles Crossbound (HLA-A2 supertype alleles): 3; clinical responders [4]: five
p53.149: wild-type version of analog p53.149M2 used in EP-2101 (STPPPGTRV; UniProt P04637 149-157, looked up, fragment) [reference compound] | – | – | – | – | – | – | specific CTL responses using PBMC [5]: induced specific CTL responses
CC[C@H](C)[C@H](NC(=O)CNC(=O)[C@H](Cc1ccccc1)NC(=O)[C@@H](NC(=O)[C@H](CC(C)C)NC(=O)[C@H](CCC(N)=O)NC(=O)[C@H](CC(C)C)NC(=O)[C@@H](N)Cc1ccc(O)cc1)C(C)C)C(=O)N[C@@H](CCC(=O)O)C(=O)N[C@H](C(=O)O)C(C)C [Peptide 1090.01] | – | – | – | – | > 2 mg/mL | > 2 mg/mL | peptide and tumor cell-reactive CTL in vivo (HLA-A2.1 transgenic mice): induce peptide and tumor cell-reactive CTL in vivo; solubility [9]: < 5 mg/mL
CC(C)C[C@H](NC(=O)[C@H](CO)NC(=O)CNC(=O)[C@H](Cc1ccccc1)NC(=O)[C@@H](NC(=O)[C@@H](N)CCCCN)C(C)C)C(=O)N[C@@H](C)C(=O)N[C@@H](Cc1ccccc1)C(=O)N[C@H](C(=O)O)C(C)C [Peptide 1334.10] | – | – | – | – | > 2 mg/mL | < 5 mg/mL | solubility [9]: > 2 mg/mL
CC(C)C[C@H](NC(=O)[C@@H](NC(=O)[C@H](Cc1c[nH]c2ccccc12)NC(=O)[C@H](C)NC(=O)[C@H](C)NC(=O)[C@@H](NC(=O)[C@H](CC1CCCCC1)NC(=O)[C@H](CCCCN)NC(=O)[C@@H](C)N)C(C)C)[C@@H](C)O)C(=O)N[C@@H](CCCCN)C(=O)N[C@@H](C)C(=O)N[C@@H](C)C(=O)N[C@H](C)C(=O)O [Peptide 965.10, aKXVAAWTLKAAa] | – | – | – | – | – | – | IC50 [1]: ≤ 1 µM; immunogenicity in humans ([6]; co-emulsified with HPV-derived CTL epitopes): highly immunogenic in humans; safety ([6]; patients with recurrent or residual cervical carcinoma): Safety was, in fact, demonstrated; solubility [3]: > 2 mg/mL; solubility ([3]; pH 9.6): < 5 mg/mL
CC[C@H](C)[C@H](N)C(=O)N[C@@H](CCSC)C(=O)N[C@H](C(=O)NCC(=O)N[C@@H](Cc1c[nH]cn1)C(=O)N[C@@H](CC(C)C)C(=O)N[C@H](C(=O)NCC(=O)N[C@H](C(=O)O)C(C)C)C(C)C)[C@@H](C)CC [Peptide 1352.02] | > 2 mg/mL | > 2 mg/mL | < 5 mg/mL | – | – | – | CTL activity of heteroclitic analog versus wild-type peptide [2]: strong CTL activity which exceeds that of the wild-type peptide
CC(C)C[C@H](NC(=O)[C@H](CC(C)C)NC(=O)[C@@H](N)CCCNC(=N)N)C(=O)N[C@@H](CCC(N)=O)C(=O)N[C@@H](CCC(=O)O)C(=O)N[C@H](C(=O)N[C@@H](CCC(=O)O)C(=O)N[C@@H](CC(C)C)C(=O)N[C@H](C(=O)O)C(C)C)[C@@H](C)O [Peptide 1013.08] | – | – | – | – | > 2 mg/mL | > 2 mg/mL | specific CTL responses using PBMC [5]: induced specific CTL responses
TT 830-843: tetanus toxoid (TT) peptide 830-843, a "universal" epitope (QYIKANSKFIGITE; UniProt P04958 830-843, looked up, fragment) [reference compound] | – | – | – | – | – | – | Number of HLA-DR molecules bound [1]: seven
CC(C)C[C@H](NC(=O)[C@@H](N)CC(C)C)C(=O)N[C@H](C(=O)N[C@@H](Cc1ccccc1)C(=O)N[C@@H](Cc1c[nH]c2ccccc12)C(=O)N[C@@H](CC(N)=O)C(=O)N1CCC[C@H]1C(=O)N1CCC[C@H]1C(=O)N[C@H](C(=O)O)C(C)C)[C@@H](C)O [Peptide 1243.08] | – | – | – | – | > 2 mg/mL | > 2 mg/mL | solubility [9]: > 2 mg/mL
CSCC[C@H](NC(=O)[C@@H](N)CO)C(=O)N1CCC[C@H]1C(=O)N1CCC[C@H]1C(=O)N1CCC[C@H]1C(=O)NCC(=O)N[C@H](C(=O)N[C@@H](CCCNC(=N)N)C(=O)N[C@H](C(=O)O)C(C)C)[C@@H](C)O [Peptide 1295.03] | > 2 mg/mL | > 2 mg/mL | > 2 mg/mL | soluble | – | – | peptide and tumor cell-reactive CTL in vivo (HLA-A2.1 transgenic mice): induce peptide and tumor cell-reactive CTL in vivo
